US20040242669A1, “Method of treating deficits associated with brain injury” (priority 2003, published 2004)
Marks after values point to notes of the source that are not given here.

Tests used:
Assay type in all cases: in vivo, rat
[1] = test system: animals with chronic brain occlusive ischemia; assay: Step-through passive avoidance, chronic brain occlusive ischemia; details: for Latency: median latency to re-enter dark box, max 300 s
Procedure: (§1) Male rats of the Sprague-Dawley strain (purchased from Charles River, Italy) weighing 280±20 g were used throughout all experiments. The animals were housed two-three to a cage under a constant light-dark cycle (lights on between 8.00 and 20.00) at 21° C. Commercial food and tap water were available ad libitum. All animals were used only once in the behavioral experiments.
(§2) A number of animals were subjected to a manipulation of the four major arteries of the brain with a method similar to that described by Pulsinelli et al., Ann. Neurol, 11, 491-498 (1982). Both vertebral arteries were cauterised under sodium pentobarbital anaesthesia and polyethylene cuffs PE-10 were placed loosely around the common carotid arteries without completely interrupting carotid blood flow. Two months after operation, all surviving animals showing no neurological gross abnormalities were admitted to drug treatment. Animals undergoing a sham operation were considered as controls.
(§3) Ropinirole (ropinirole hydrochloride, SmithKline Beecham, Italy) and dihydroergocryptine (DHECP) α-dihydroergocryptine methanesulfonate, Monsanto, Italy) were dissolved in saline and injected subcutaneously (s.c.) at the dose of 0.5 and 1 mg/kg/day for 7 days. In the experiments with kainate-induced convulsions, ropinirole or DHECP were injected intravenously (i.v.) 30 min prior, and again at the same time of the intracerebroventricular (i.c.v) injection on kainic acid; Control animals received an injection of saline alone with the same procedure.
(§4) Animals with 2-month chronic brain occlusive ischemia, were subjected to a treatment with ropinirole, DHECP or saline for 7 days. At the end of treatment, the animals were admitted to behavioral testing. Controls were those animals with sham manipulation of brain arteries.

[2] = test system: animals with chronic brain occlusive ischemia; assay: Open field spontaneous motor activity, chronic brain occlusive ischemia; details: for Ambulation / Defecation / Grooming / Rearing: 5 min open field, mean ± S.E.M.
Procedure: as §1, §2, §3
Spontaneous motor activity was scored in a circular open field arena as described by Weijnen and Slangen, Pituitary, Adrenal and the Brain, pp221-235 (1982). Animals were put inside a circular lit-up arena, with the bottom divided into 27 areas of equal size.
as §4

[3] = test system: animals with hypobaric hypoxia-induced amnesia; assay: Step-through passive avoidance, hypobaric hypoxia-induced amnesia; details: for Latency: hypobaric hypoxia, median latency to re-enter dark box, max 300 s
Procedure: as §1, §3
Passive avoidance behaviour was studied in a step-through type of passive avoidance situation (Ader et al., Psycon Sci, 26, 125-128 (1972)). Briefly the rats were adapted to the apparatus consisting of a large dark compartment equipped with a grid floor and a mesh-covered elevated runway attached to the front centre of the dark chamber. Adaptation training was followed by a single trial in which the rats were placed on the elevated platform and allowed to enter the dark box. Three such trials were given on the next day with an intertrial interval of 5 min after the trial. The rats received a single 2-s unavoidable scrambled foot-shock (0.20 mA) immediately after entering the dark compartment. Retention of the response was tested 24 h after the learning trial. The rats were placed on the elevated runway and the latency to re-enter the shock compartment was recorded up to a maximum of 300 s.
In the first experiment, the effects of ropinirole or DHECP were studied on amnesia induced by hypobaric hypoxia in rats. After a 7-day pretreatment with ropinirole, DHECP or saline, a group of animals was subjected to acute hypobaric hypoxia by means of a hypobaric chamber (Chantiers et Ateliers de Bretagne, France) causing depression to 300 mmHg (Boismare et al., Gerentology, 24, 6-13 (1978)). After 3 min in the chamber, the animals were removed and admitted for behavioral testing. Intact control rats were also introduced into the chamber but not subjected to hypobaric hypoxia.

kainate-induced epilepsy = assay: Kainate-induced convulsions (epilepsy); details: for Latency (s) to the first tonic-clonic seizure / Seizures (total number) / Mortality (%): kainic acid 10 μg/2 μl i.c.v.; for Latency (s) to the first tonic-clonic seizure / Seizures (total number): 30-min observation, mean ± S.E.M.; for Mortality (%): checked 2 h after convulsive agent
Procedure: as §1
Another group of animals were implanted under ether anaesthesia with a permanent plastic cannula in the right lateral ventricle (foramen interventriculare, Konig and Klippel A 6360) with another cannula into the right jugular vein. These animals were sacrificed at the end of behavioral procedure and the brains were utilized for biochemical analysis. Data were taken from animals showing no abnormalities at the postmortem examination. All experiments were carried out according to the European Community Council Directive 86/609/ECC and efforts were made to minimize animal suffering and to reduce the number of animals used.
as §3, with “[…],” for “ropinirole or DHECP were injected intravenously (i.v.) 30 min prior,”
Kainic acid (Sigma, USA) was dissolved in saline and injected i.c.v. at the dose of 10 μg/2 μi.
Over a 30-min observation, the following items were recorded per each animal receiving an i.c.v. injection of kainic acid: latency in s to the first tonic-clonic seizure; total number of seizures, percent rate of mortality (checked 2 h after the administration of the convulsive agent).
Behavioral scoring of kainate-induced convulsions was started immediately after i.c.v. injection of the drug and proceeded for 30 min. Ropinirole, DHECP or saline were injected twice, 30 min prior and, again, at the same time of the i.c.v. administration of kainic acid.

[4] = kainate-induced seizures, summary of Table 3

In the case of `CC(C)C[C@H]1C(=O)N2CCC[C@H]2[C@]2(O)O[C@](NC(=O)[C@@H]3C[C@@H]4c5cccc6[nH]cc(c56)C[C@H]4N(C)C3)(C(C)C)C(=O)N12` [DHECP, α-dihydroergocryptine methanesulfonate], the Latency ([1]; 0.5 mg/kg/day s.c. for 7 days) is reported as 46^c,d, the Latency ([1]; 1 mg/kg/day s.c. for 7 days) is reported as 58^d and the “latency to re-enter the dark-box (effect of treatment, in words)” value ([1]; Table 2) is reported as “increased”. The Ambulation ([2]; 0.5 mg/kg/day s.c. for 7 days) was 68.9 ± 6.6^a,e, the Defecation ([2]; 0.5 mg/kg/day s.c. for 7 days) was 3.4 ± 0.9^a and the Grooming ([2]; 0.5 mg/kg/day s.c. for 7 days) was 22.2 ± 2.3. For the same compound, the Rearing ([2]; 0.5 mg/kg/day s.c. for 7 days) was 16.4 ± 1.3^e, the Ambulation ([2]; 1 mg/kg/day s.c. for 7 days) was 73.1 ± 5.6^a,e and the Defecation ([2]; 1 mg/kg/day s.c. for 7 days) was 3.7 ± 1.3^a. The Grooming ([2]; 1 mg/kg/day s.c. for 7 days) was 23.3 ± 2.1, the Rearing ([2]; 1 mg/kg/day s.c. for 7 days) was 16.5 ± 1.9^e and the “ambulation and rearing (effect of treatment, in words)” value ([2]; to a level similar to that of intact controls) was “increased”. The “latency to re-enter the dark box (effect of treatment, in words)” value ([3]; hypobaric hypoxia-induced amnesia, summary of Table 1) was “increase in these behavioral parameters, however, for the latter only with the greater dose”, the Latency ([3]; 0.5 mg/kg/day s.c. for 7 days) was 30^e and the Latency ([3]; 1 mg/kg/day s.c. for 7 days) was 74^f. For the same compound, the “latency to the first tonic-clonic seizure (effect of treatment, in words)” value (kainate-induced epilepsy; [4]) was “did not modify”, the “percent mortality rate (effect of treatment, in words)” value (kainate-induced epilepsy; [4]) was “significant decrease” and the “total number of kainate-induced seizures (effect of treatment, in words)” value (kainate-induced epilepsy; [4]) was “did not modify”. The “Latency (s) to the first tonic-clonic seizure” value (kainate-induced epilepsy; 0.5 mg/kg injected s.c. twice (30 min prior and at kainic acid)) was 56.9 ± 8.5 s, the “Seizures (total number)” value (kainate-induced epilepsy; 0.5 mg/kg injected s.c. twice) was 7.8 ± 1.0 and the “Mortality (%)” value (kainate-induced epilepsy; 0.5 mg/kg injected s.c. twice) was 10^a %. For the same compound, the “Latency (s) to the first tonic-clonic seizure” value (kainate-induced epilepsy; 1 mg/kg injected s.c. twice (30 min prior and at kainic acid)) was 69.2 ± 6.5 s, the “Seizures (total number)” value (kainate-induced epilepsy; 1 mg/kg injected s.c. twice) was 5.7 ± 1.1 and the “Mortality (%)” value (kainate-induced epilepsy; 1 mg/kg injected s.c. twice) was 10^a %.
